Source: US9220261B1, “Volatile blends and the effects thereof on the navel orangeworm moth” (The United States of America, as represented by the …, priority 2010, dated 2015)

Columns and labels:
[1] = system: NOW; assay: Field trapping screening studies of individual CONO; type: in vivo, Amyelois transitella; settings: September 2 to Oct. 5, 2009, almond and pistachio orchards
Description: FAB.x and GAVA.x blends were mixed with another component, conophthorin (CONO). CONO increased the efficacy of the blends in the FAB4 and GAVA series. This was somewhat unexpected as CONO alone is not attractive to NOW. […] Subsequent field trapping screening studies of individual CONO between September 2 and Oct. […] Virgin female NOW-baited traps at the same time indicated pressures of NOW in the orchards.

[2] = system: NOW; assay: Electroantennographic studies of CONO; design: species or system Amyelois transitella; settings: lower than the positive standard
[3] = system: female NOW antennae; assay: Electroantennogram (EAG) bioassay, female NOW antennae; design: species or system Amyelois transitella; settings: Example 1; 50 μg on disc (almond meal 3.1 mg); raw response minus NegCtrl
Experimental: The EAG experiments were performed by similar protocols described previously (Beck et al., 2009, supra). The antennae of sexed NOW were excised, positioned on a fork electrode using electrode gel, and connected to an IDAC-4 acquisition controller and electrophysiological amplifier using PC-based software (Syntech, Kirchzarten, Germany). The antennae were humidified with a stream of purified air bubbled through distilled water at a flow rate of 200 ml/min. The individual compounds for EAG analysis (50 μg; 10 μl of a 5 μg/μl solution in pentane) were loaded onto oven-dried 0.64 cm assay discs, allowed to air-dry for five min, inserted into 14.6 cm Pasteur pipets and the ends temporarily capped with parafilm. […] For almond meal analyses, 3.1 mg was placed in a Pasteur pipet containing very lightly packed glass wool. Negative control ([…]) discs were prepared using a similar method, but with 10 μl of pentane prior to solvent evaporation. Positive control (PosCtrl) discs were prepared using the major sex pheromone component (Z,Z)-11,13-hexadecadienal (50 μg, Suterra LLC, Bend, Oreg.). The pipets loaded with the individual compounds were attached via tubing to a stimulus controller unit (Syntech). The antennae were exposed to each compound by a two-second puff of air and the resulting response recorded. […]

C[C@@H]1CCC[C@@]2(CCCO2)O1 [CONO, 7-methyl-1,6-dioxaspiro[4.5]decane]
attraction of NOW in field trapping [1]: did not attract any NOW | electroantennographic activity [2]: mildly active

Oc1ccccc1 [phenol]
EAG antennal response from female NOW, normalized [3]: 78 μV

CC(=O)c1ccccc1 [acetophenone]
EAG antennal response from female NOW, normalized [3]: 397 μV
